Measured values from patent publication US12612395B2, “Rocaglate derivatives and uses thereof” (TRUSTEES OF BOSTON UNIVERSITY, priority 2023, dated 2026).

What was measured:
[1] = tested on: BT112 CSCs; assay: Dose-response killing of CSCs in BT112 glioblastoma cell line; assay type: cell-based; conditions: Homo sapiens, read-out: CSC EC50
Experimental: (§1) Cell Culture: Glioblastoma stem cell lines GBM0308, BT145, and BT112 were cultured in neurobasal (NBE medium) containing N-2 and B-27 supplements, EGF, bFGF, L-glutamine, and Penicillin-Streptomycin), as described previously.^19 Adherent GBM cells were cultured in serum-containing DMEM media (Invitrogen) supplemented with 10% fetal bovine serum (Corning Cellgro™). Cells were incubated at 37° C. and 5% CO2 to allow neurosphere formation. For seeding and subculturing, the neurospheres were gently trypsinized with 0.025% trypsin to form a single-cell suspension.
(§2) Dose-Response Testing in GBM Cells: Briefly, on day 1, cells were seeded in triplicate. For CSCs, 1500 cells/well were plated in a low attachment 96-well plate with NBE media and incubated for 3 days at 37° C. and 5% CO2 to allow the formation of neurospheres. For non-CSCs, 3000 cells/well were plated in a 96-well plate with DMEM media supplemented with 10% FBS. Similarly, the assay plates were also incubated for the same duration. Compound treatments started on day 4. […] After incubation, plates were read by Celigo imaging cytometer using an inbuilt Celigo application; Cell Viability (Dead+Total). For the viability measurement, the total number of neurospheres/cells and dead neurospheres/cells in each well were counted by the cytometer. […]

[2] = tested on: BT145 CSCs; assay: Dose-response killing of CSCs in BT145 glioblastoma cell line; assay type: cell-based; conditions: Homo sapiens, read-out: CSC EC50
Experimental: as §1, §2

[3] = tested on: GBM0308 neurospheres; assay: Neurosphere formation assay (single neurosphere, PI/Hoechst); assay type: cell-based; conditions: three days treatment
Experimental: To gain additional mechanistic insights into GBM cell death induced by (−)-20, the inventors conducted several functional assays. The inventors first derived a single neurosphere from GBM0308 cells cultured in stem cell conditions, which was treated with either DMSO or (−)-20 at varying doses for three days followed by staining with PI and Hoechst dyes and subsequent imaging. […] To capture the kinetics of apoptotic events, the inventors employed caspase 3/7 staining of GBM0308 neurospheres treated with either DMSO or (−)-20 and subsequently evaluated at three timepoints over a 48-hour period. […] (FIG. 5B).
Neurosphere Formation Assays: Single neurospheres were generated by seeding GBM0308 cells (400 cells per well) in a 384-well ultra-low attachment round bottom microplate (Nexcelom Bioscience, ULA-384 U). The plates were then centrifuged at 300×g for 10 minutes to cluster cells at the bottom of the wells, followed by incubation at 37° C. and 5% CO2 for 4 days to allow the formation of single neurospheres and treated with either DMSO or drugs at concentrations of 3.3, 1.11, 0.37, 0.12, 0.041, 0.013, 0.004 μM. On Day 7, neurospheres were stained with propidium iodide and Hoechst, as described above. The “neurosphere 1+Mask” application was used to measure the fluorescent intensities of PI, using Celigo cytometer as described previously.^70

[4] = tested on: GBM0308 stem cells; assay: RNA sequencing of treated GBM CSCs; assay type: cell-based, human; conditions: 0.1 μM and 1 μM, 12 h and 24 h
Text: To understand the transcriptomic changes underlying (−)-20 effects on GBM CSCs, the inventors performed RNA sequencing experiments in these cells. […] Furthermore, upon compound treatment, the inventors observed the downregulation of several hallmark gene sets associated with critical cellular processes, including apoptosis, glycolysis, MTORC1 signaling, NOTCH signaling, epithelial-mesenchymal transition (EMT), and angiogenesis (FIGS. 5D and 18A). […] This observation emphasizes the complexity of cell death mechanisms and the potential origins of selectivity of (−)-20 against CSCs. […] (FIG. 5E).
RNA Sequencing and Analysis: GBM0308 cells cultured in NBE medium were treated with compound (−)-20 at concentrations of 0.1 μM, 1 μM and DMSO. At 12 h and 24 h timepoints, total RNA was extracted using RNeasy mini kit (Qiagen) as per the manufacturer's instruction. Preparation of the RNA library and transcriptome sequencing were conducted by Novogene. […]

## COc1cc(OC)c2c(c1)O[C@@]1(c3ccc(Br)cc3)[C@H](c3ccccc3)[C@@H](C(=O)NS(=O)(=O)N(C)C)[C@@H](O)[C@@]21O [(−)-20, (1R,2R,3S,3aR,8bS)-3a-(4-bromophenyl)-N—(N,N-dimethylsulfamoyl)-1,8b-dihydroxy-6,8-dimethoxy-3-phenyl-2,3,3a,8b-tetrahydro-1H-cyclopenta[b]benzofuran-2-carboxamide]
[1]
  EC50: 0.034 µM
[2]
  EC50: 0.093 µM
[3]
  concentration from which cytotoxic effects on CSC neurospheres are seen (PI staining): ≥ 120 nM
[3]; varying doses
  effect on neurosphere size, in words: dose-dependent reduction in neurosphere size
[4]
  expression of genes involved in stem cell maintenance and survival (NOTCH1, NOTCH2, NOTCH3, SALL3, SOX2): downregulated
